Here are results for eight molecules from ChEMBL document CHEMBL4052681, “Discovery of simplified leucyladenylate sulfamates as novel leucyl-tRNA synthetase (LRS)-targeted mammalian target of rapamycin complex 1 (mTORC1) inhibitors” (Bioorg Med Chem, 2017).

Each structure is given as a SMILES string. Activity calls are given as the source filed them. No cut-off for these calls is given here.

Assay [1] deals with T1, Leucine--tRNA ligase, cytoplasmic (Homo sapiens, UniProt Q9P2J5). Briefly: Inhibition of LRS-dependent mTORC1 activation in HEK293 cells assessed as reduction in leucine-induced mTORC1-mediated S6 Kinase phosphorylation at 200 uM pretreated before leucine stimulation measured after 10 mins by immunoblot analysis. Type of assay: cell-based. (In western blotting, separated proteins are transferred to a membrane and probed.)
Target sequence in this assay (Q9P2J5 whole entry, looked up): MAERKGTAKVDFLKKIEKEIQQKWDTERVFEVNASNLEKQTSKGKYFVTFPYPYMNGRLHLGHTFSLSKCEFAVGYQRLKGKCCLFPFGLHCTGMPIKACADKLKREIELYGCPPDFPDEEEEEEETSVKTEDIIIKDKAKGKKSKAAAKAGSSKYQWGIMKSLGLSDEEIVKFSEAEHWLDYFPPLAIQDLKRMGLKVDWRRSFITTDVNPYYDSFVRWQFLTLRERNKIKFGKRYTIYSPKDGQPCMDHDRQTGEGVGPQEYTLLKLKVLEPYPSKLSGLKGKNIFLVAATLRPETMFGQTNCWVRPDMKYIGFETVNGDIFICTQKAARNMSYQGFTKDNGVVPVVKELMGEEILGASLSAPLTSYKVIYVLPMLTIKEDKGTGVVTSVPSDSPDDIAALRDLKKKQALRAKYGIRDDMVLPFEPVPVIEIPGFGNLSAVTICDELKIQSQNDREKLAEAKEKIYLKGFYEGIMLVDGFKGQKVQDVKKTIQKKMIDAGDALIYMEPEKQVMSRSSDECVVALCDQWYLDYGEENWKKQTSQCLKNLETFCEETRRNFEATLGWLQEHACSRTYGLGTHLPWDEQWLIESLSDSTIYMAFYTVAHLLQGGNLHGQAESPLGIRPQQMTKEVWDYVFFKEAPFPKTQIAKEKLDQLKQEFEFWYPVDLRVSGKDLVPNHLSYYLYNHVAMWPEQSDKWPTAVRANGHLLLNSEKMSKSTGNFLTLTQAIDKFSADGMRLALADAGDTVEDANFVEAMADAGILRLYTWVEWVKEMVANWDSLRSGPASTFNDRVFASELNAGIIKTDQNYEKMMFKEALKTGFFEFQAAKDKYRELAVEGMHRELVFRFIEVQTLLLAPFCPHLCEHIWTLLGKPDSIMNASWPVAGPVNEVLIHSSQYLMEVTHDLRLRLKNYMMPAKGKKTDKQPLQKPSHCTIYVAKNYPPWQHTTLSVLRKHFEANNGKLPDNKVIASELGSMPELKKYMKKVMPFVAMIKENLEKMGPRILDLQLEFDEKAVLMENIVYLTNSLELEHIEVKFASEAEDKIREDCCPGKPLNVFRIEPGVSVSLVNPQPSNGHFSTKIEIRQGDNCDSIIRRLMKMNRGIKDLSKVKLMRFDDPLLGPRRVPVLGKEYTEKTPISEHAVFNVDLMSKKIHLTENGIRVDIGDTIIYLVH

Assay [2] concerns the target T1, Leucine--tRNA ligase, cytoplasmic. Briefly: Inhibition of LRS-dependent mTORC1 activation in HEK293 cells assessed as reduction in leucine-induced mTORC1-mediated S6 Kinase phosphorylation at 20 to 200 uM pretreated before leucine stimulation measured after 10 mins by immunoblot analysis. It counts as cell-based.
Target sequence in this assay (Q9P2J5 whole entry, looked up): as above
Assay [3] has the same target. As to the kind of experiment: Inhibition of LRS-dependent mTORC1 activation in HEK293 cells assessed as reduction in leucine-induced mTORC1-mediated S6 Kinase phosphorylation at 100 nM pretreated before leucine stimulation measured after 10 mins by immunoblot analysis. Type of assay: cell-based.
Target sequence in this assay (Q9P2J5 whole entry, looked up): as above
For assay [4] the target is unchanged. As to the kind of experiment: Inhibition of LRS-dependent mTORC1 activation in HEK293 cells assessed as reduction in leucine-induced mTORC1-mediated S6 Kinase phosphorylation pretreated before leucine stimulation measured after 10 mins by immunoblot analysis. Type of assay: cell-based.
In assay [5] the test system is A549. Briefly: Growth inhibition of human A549 cells incubated for 72 hrs by sulforhodamine B assay. Type of assay: functional, cell-based. Conditions: A549, 72 h.
Assay [6] relates to HCT-116. Briefly: Growth inhibition of human HCT116 cells incubated for 72 hrs by sulforhodamine B assay. It counts as functional, cell-based. Conditions: HCT-116, 72 h. For orientation: Sulforhodamine B stains cellular protein and so reports cell mass.
Assay [7] relates to K562. Briefly: Growth inhibition of human K562 cells incubated for 72 hrs by sulforhodamine B assay. The conditions noted are these: K562, 72 h. Type of assay: functional, cell-based.
Assay [8] has as its system MDA-MB-231. Briefly: Growth inhibition of human MDA-MB-231 cells incubated for 72 hrs by sulforhodamine B assay. Conditions: MDA-MB-231, 72 h. It counts as functional, cell-based.
Assay [9] has as its system SK-HEP1. As to the kind of experiment: Growth inhibition of human SKHEP1 cells incubated for 72 hrs by sulforhodamine B assay. The conditions noted are these: SK-HEP1, 72 h. It counts as functional, cell-based.
Assay [10] has as its system SNU-638. Briefly: Growth inhibition of human SNU638 cells incubated for 72 hrs by sulforhodamine B assay. It counts as functional, cell-based. Conditions: SNU-638, 72 h.
Assay [11] has as its system MRC5. Briefly: Growth inhibition of human MRC5 cells incubated for 72 hrs by sulforhodamine B assay. Type of assay: cell-based. The conditions noted are these: MRC5, 72 h.
For assay [12], the target named is T1, Leucine--tRNA ligase, cytoplasmic. Briefly: Inhibition of LRS canonical enzyme activity in HEK293 cells assessed as effect on enzyme-mediated aminoleucylation. Type of assay: cell-based.
Target sequence in this assay (Q9P2J5 whole entry): as the sequence (Q9P2J5 whole entry, looked up) above

By IC50 is commonly meant the concentration needed to halve the response being measured.

As for `CC(C)C[C@H](O)C(=O)NS(=O)(=O)OC[C@H]1O[C@@H](n2cnc3c(N)nc(I)nc32)[C@H](O)[C@@H]1O`, in assay [1], the “inhibition of S6K phosphorylation (qualitative)” value (from here on “inhibition … (qualitative)”) is “Active”.
Turning to `COc1ccc(CNS(=O)(=O)c2ccc(N3C[C@H](CC(C)C)NC3=O)cc2)cc1OC`, the inhibition result in assay [2] is “inactive”.
With `CO[C@H]1C[C@@H]2CC[C@@H](C)[C@@](O)(O2)C(=O)C(=O)N2CCCC[C@H]2C(=O)O[C@H]([C@H](C)C[C@@H]2CC[C@@H](O)[C@H](OC)C2)CC(=O)[C@H](C)/C=C(\C)[C@@H](O)[C@@H](OC)C(=O)[C@H](C)C[C@H](C)/C=C/C=C/C=C/1C`, the inhibition entry in [3] is “Active”.
`COc1ccc(CNS(=O)(=O)c2ccc(NC(=O)[C@@H](N)CC(C)C)cc2)cc1OC`: the “inhibition … (qualitative)” value in [1] was “Active”. The IC50 in assay [4] worked out at 44.9 µM; in assay [5], 5.29 µM; in assay [6], 3.96 µM; in assay [7], 4.48 µM; in assay [8] it was 5.44 µM; in assay [9] it was 3.07 µM. Besides, the IC50 in assay [10] was 6.26 µM; in [11], more than 20 µM; in assay [12], more than 800 µM. The inhibition entry in assay [4] is “Dose-dependent effect”.
For `COc1ccc(CNS(=O)(=O)c2ccc(N3C(=O)N[C@@H](CC(C)C)C3=O)cc2)cc1OC`, the IC50 in assay [4] is 26.4 µM; in [5], 5.54 µM; in [6], 4.28 µM; in assay [7] it was 2.86 µM; in assay [8], 5.65 µM; in [9], 2.44 µM. The IC50 in [10] is 5.22 µM; in [11], more than 20 µM; in [12] it was more than 800 µM. Further, the inhibition entry in [4] is “Dose-dependent effect”.
For `COc1cc([C@@H]2c3cc4c(cc3[C@@H](O[C@@H]3O[C@@H]5CO[C@@H](C)O[C@H]5[C@H](O)[C@H]3O)[C@H]3COC(=O)[C@H]23)OCO4)cc(OC)c1O` [ETOPOSIDE], the IC50 in assay [5] is 0.3 µM; in assay [6], 1.06 µM; in [7], 0.76 µM; in assay [8], 1.53 µM; in assay [9] it was 0.63 µM; in [10], 1.05 µM. In assay [11], it took 11.7 µM to reach half-maximal inhibition (IC50).
As to `COc1ccc(CNS(=O)(=O)c2ccc(NC(=O)[C@@H](O)[C@H](O)C(C)C)cc2)cc1OC`, in assay [1], the “inhibition … (qualitative)” value is “Active”.
Still for that read-out and setting: the entry for `COc1ccc(CNS(=O)(=O)c2ccc(NC(=O)[C@@H](O)CC(C)C)cc2)cc1OC` is “Active”.
